For one test, the system named is C. mucofaciens. Put plainly: Tier 1 Anaerobic MIC Assay. In kind it is cell-based, Corynebacterium mucofaciens (clinical isolate). Conditions: for MIC: Corynebacterium, read-out: microbial inhibition concentration (MIC). From the text: (§1) 1. Tier 1 Anaerobic MIC Assay
(§2) The data in Table 2 above was generated with the following test method. The purpose of this assay is to determine if a compound or formulation has an antimicrobial effect in vitro.
(§3) It is understood that when not specifically noted in this procedure: • a) All materials, reagents and equipment required for this procedure are of appropriate design and condition of cleanliness and/or sterility as determined by their intended use. • b) The operator has been trained in aseptic technique and has been qualified to perform the procedure and accurately interpret the results. • c) All media required for this procedure was manufactured by a reputable commercial source egg. Difco, Merck etc. and has been stored and prepared as per manufacturer's instructions. • d) All routine laboratory controls, including but not limited to, media function and growth promotion tests, verification of sterility and use of positive and negative controls are being conducted.
(§4) Procedure: (All Procedures Performed in Anaerobic Chamber Except where Noted)
(§5) Incubator at 37° C.; 20-200 ul channel pipette; 5-50 ul channel pipette; 1250 ul 8 channel Thermo Scientific Matrix pipette; 96 well plate shaker (located in incubator); Beckman Coulter deep well cap mat #267005; Beckman Coulter deep 96 well plates #267007; Falcon 96 well tissue culture plates #353072; Vortexer; Culture tubes/caps Disposable sterile gloves; Sterile petri dishes; Standard microbiological lab equipment (sterile pipettes, syringes, tips, loops, etc.); Glass bottles/flasks for media; Autoclave; Parafilm; Spectrophotometer.
(§6) • 0.9% or 0.85% saline solution • BHI agar supplemented with 1% Tween 80 • BHI media supplemented with 1% Tween 80 3. Microbial Strains
Corynebacterium mucofaciens (clinical isolate)
(§7) Prior to testing streak organisms for isolation on BHI with 1% Tween 80 plates, wrap with parafilm and place in 37° C. incubator. When isolated colonies appear remove one representative colony from each plate and place each in 5 ml of BHI with 1% Tween 80 media. Incubate at 37° C. with shaking overnight. Inoculate 20 ml BHI with 1% Tween 80 (per 96 deep well plate to be tested) with 20 ul of the overnight culture (1-1000 dilution).
(§8) Compounds/formulations to be tested are diluted across a 96 deep well plate as shown below (for a 1% stock solution). 800 ul of 0.85% saline is added to wells A1 and B1 (as these will be the negative and positive control respectively). 800 ul each 1% stock solution+positive control are added to wells C1 through H1. 400 ul 0.85% saline are added to all other wells. 400 ul is then removed from #1 well added to the #2 well and mixed. This is then continued across the plate resulting in a 50% dilution between wells across the plate (this can be easily accomplished with an automatic 8 channel Matrix pipette set to withdraw, dispense and mix).
(§9) In row A of a 96 deep well plate pipette 180 ul of sterile BHI with 1% Tween 80 as a negative growth control. All other wells receive 180 ul of inoculum. From the master plate introduce 20 ul to the corresponding row in the test plate using an 8-channel pipette. Loaded plates are placed on a plate shaker in the 37° C. incubator and incubated overnight. The next day read the O.D. 600 on a plate reader. The MIC is the last well from the right that has no bacterial growth.

In the next test the test system is S. epidermidis. Put plainly: Tier 1 Anaerobic MIC Assay. The format is cell-based, Staphylococcus epidermidis (clinical isolate). As to conditions: for MIC: Staphylococcus epidermidis, read-out: microbial inhibition concentration (MIC).
Description: as §1, §2, §3, §4, §5, §6
Staphylococcus epidermidis (clinical isolate)
as §7, §8, §9

Test [1] has as its system two key underarm bacteria strains. Put plainly: Raw material microbial inhibition, summary in words. In kind it is cell-based. As to conditions: C. mucofaciens and S. epidermidis. An excerpt:
The data in Table 2 above was generated with the following test method.

Setting [2] is: anaerobic, 37° C. overnight, O.D. 600.

Molecules are shown by their SMILES. Converted amounts (≈) assume the structure as drawn. Counter-ions that a name gives are not always drawn. Like-named read-outs stand apart in the source and are kept apart here.

We go through 18 molecules from patent US11497706B2, “Antiperspirant and deodorant compositions” (The Procter & Gamble Company, priority 2017, dated 2022).

Regarding `CC(C)=CCCC(C)=CCCC(C)=CCO` [Farnesol], the MIC in the test on C. mucofaciens (setting [2]) worked out at 47500 µg/mL (≈ 214 mM); in the test on S. epidermidis (setting [2]), 5940 µg/mL (≈ 26.7 mM).
In the same order, the values of `C/C(=C\CO)CCC[C@H](C)CCC[C@H](C)CCCC(C)C` [Phytol] are > 49000 µg/mL and > 49000 µg/mL.
For `[Cl-].[Na+]` [NaCl], the “microbial inhibition concentration (MIC)” value in the test on C. mucofaciens (setting [2]) and in the test with S. epidermidis (setting [2]) was >25000 ppm each time.
For `[Ca+2].[Cl-].[Cl-]` [CaCl], the “microbial inhibition concentration (MIC)” value in the test with C. mucofaciens (setting [2]) and in the test with S. epidermidis (setting [2]) was >50000 ppm in each case.
As to `CCCCCCCCC(CO)CCCCCC` (stereo not shown) [Hexyl Decanol], the “microbial inhibition concentration (MIC)” value in the test with C. mucofaciens (setting [2]) was found to be 6062 ppm; in the test on S. epidermidis (setting [2]) it was 3031 ppm.
`CCCCCCCCCCCCCC(=O)OC(C)C` [Isopropyl Myristate]: the MIC with C. mucofaciens (setting [2]) and in the test on S. epidermidis (setting [2]) was > 59000 µg/mL in each case.
For `CCCCC/C=C\C/C=C\CCCCCCCC(=O)O` [Linoleic acid], the MIC with C. mucofaciens (setting [2]) and with S. epidermidis (setting [2]) was 3120 µg/mL (≈ 11.1 mM) in each case.
For the molecule `CC/C=C\C/C=C\C/C=C\CCCCCCCC(=O)O` [linolenic acid], the MIC in the test with C. mucofaciens (setting [2]) and with S. epidermidis (setting [2]) was 1090 µg/mL (≈ 3.93 mM) in each case.
Regarding `CC(C)=CCCC(C)=CC=O` [citral], the MIC in the test on C. mucofaciens (setting [2]) and with S. epidermidis (setting [2]) was 1500 µg/mL (≈ 9.85 mM) in each case. Besides, the “performance against the bacteria as raw materials” value (“performance against the bacteria” for short) in test [1] was “performing well”.
As to `C=CCc1ccc(O)c(OC)c1` [eugenol], the MIC in the test on C. mucofaciens (setting [2]) and in the test on S. epidermidis (setting [2]) was 773 µg/mL (≈ 4.71 mM) in each case. For the same molecule, the “performance against the bacteria” value in test [1] is “performing well”.
For `C=CC(C)(O)CCC=C(C)CCC=C(C)C` (stereo not shown) [Nerolidol], the MIC in the test with C. mucofaciens (setting [2]) and with S. epidermidis (setting [2]) was > 49000 µg/mL each time.
Regarding `CCCCC(CC)COCC(O)CO` (stereo not shown) [Ethylhexyl glycerin], the “microbial inhibition concentration (MIC)” value with C. mucofaciens (setting [2]) and with S. epidermidis (setting [2]) was 12500 ppm each time.
Consider `COC(=O)CCC(=O)OC` [dimethyl succinate], for which the MIC stood at 1530 µg/mL with C. mucofaciens (setting [2]) and 3060 µg/mL in the test on S. epidermidis (setting [2]). Also, the “performance against the bacteria” value in test [1] is on record as “performing well”.
In the case of `CCOC(=O)CC(O)(CC(=O)OCC)C(=O)OCC` [triethyl citrate], the MIC in the test on C. mucofaciens (setting [2]) and in the test with S. epidermidis (setting [2]) was 1600 µg/mL in each case. For the same molecule, the “performance against the bacteria” value in test [1] is on record as “performing well”.
Regarding `N=C(N)c1ccc(OCCCCCCOc2ccc(C(=N)N)cc2)cc1` [hexamidine], the MIC with C. mucofaciens was < 2 µg/mL; in the test with S. epidermidis it was 7 µg/mL (≈ 0.0197 mM).
On to `C=CCCCCCCCCC(=O)N[C@@H](Cc1ccccc1)C(=O)O` [Sepiwhite], for which the entries for the “microbial inhibition concentration (MIC)” value in the test with C. mucofaciens (setting [2]) and in the test on S. epidermidis (setting [2]) were 2000 ppm and 1000 ppm, respectively. In addition, the “performance against the bacteria” value in test [1] is reported as “performing well”.
For `O=C([O-])[O-].[Ca+2]` [calcium carbonate], the “microbial inhibition concentration (MIC)” value with C. mucofaciens (setting [2]) and in the test with S. epidermidis (setting [2]) was >2500 ppm throughout. For the same molecule, the “performance against the bacteria” value in test [1] is given as “performing moderately well”.
As for `Cc1cc(CC(C)CC(C)(C)C)n(O)c(=O)c1.NCCO` (stereo not shown) [piroctone olamine, 1-Hydroxy-4-methyl-6-(2,4,4-trimethylpentyl)-2-pyridone monoethanolamine salt, reference compound], the values for the MIC in the test with C. mucofaciens (setting [2]) and in the test with S. epidermidis (setting [2]) were < 5 µg/mL and 10 µg/mL, respectively. Also, in test [1], the “performance against the bacteria” value is “perform particularly well”.
